Where a SMILES comes first, the peptide text is derived from it. [ ]: non-standard residue; d: D form. The star is where a group is joined. ξ: configuration not given here. ξPro(4ξ-Me) = CC1CNC(C(=O)O)C1; Cbz = O=C(OCc1ccccc1)*

Assay [1] deals with Saccharomyces cerevisiae 20S proteasome CT-L activity. The note with it: cited from earlier work. As to the method:
(§1) Nostodione A from Scytonema hofmannii, which inhibits CT-L activity (IC50 50 μM), contains indole moiety fused with diketone system.

For assay [2], the target named is T1, human 20S proteasome (h20S), chymotrypsin-like (CT-L) activity (Homo sapiens, UniProt P28074).
T1 construct: Human 20S proteasome (h20S) isolated from erythrocytes was used; from tissue; host or cells: human erythrocytes
Briefly: Human 20S inhibition assay, chymotrypsin-like activity (Suc-LLVY-AMC). It is filed as biochemical. As to conditions: Suc-LLVY-AMC 100 µM, pH 8.0, 37 °C. As to the method:
(§2) The 20S proteasome inhibition assay was performed following the procedure of Czerwonka et al.. Human 20S proteasome (h20S) isolated from erythrocytes was used. Latent h20S was activated with 0.01% SDS (sodium dodecyl sulfate). The final concentration of the proteasome was 1 µg mL^−1 (1.4 nM). The fluorogenic substrates, Suc-LLVY-AMC, Boc-LRR-AMC, and Z-LLE-AMC, were used as probes in the chymotrypsin-like, trypsin, and caspase-like activity assays, respectively, at a final concentration of 100 µM. Stock solutions of Ncps (10 mM) were prepared in dimethyl sulfoxide (DMSO) and were tested in the concentration range of 5 to 50 μM. The content of DMSO never exceeded 3% of the final reaction volume. The assays were performed in a 96-well plate in 50 mM TrisHCl, pH 8.0, at 37 °C. The percentage of the substrate hydrolysis was measured by the amount of the released AMC (aminomethyl coumarin) using Tecan Infinite M200 Pro (λ = 380–460 nm) spectrofluorimeter (Tecan Trading AG, Männedorf, Switzerland). The fluorescence measurements were performed at 2-min intervals for 60 min. The activity of h20S in the presence of isolated Ncps was calculated in relation to the control (DMSO). The known proteasome inhibitor PR11 [28] was used to ensure the correctness of the assay. The peptide at the final concentration of 0.2 µM decreases the relative CT-L activity of the h20S to 6% of the control.

Assay [3] deals with 20S complex (proteasome). The note with it: read-out: IC50, catalytic activity of proteasome; cited from earlier work. As for the experimental part:
as §1

Assay [4] deals with T2, human 20S proteasome (h20S), trypsin-like (T-L) activity (Homo sapiens, UniProt Q99436).
T2 construct: Human 20S proteasome (h20S) isolated from erythrocytes was used; from tissue; host or cells: human erythrocytes
The assay can be described thus: Human 20S inhibition assay, trypsin-like activity (Boc-LRR-AMC). It is filed as biochemical. As to conditions: tested 5 to 50 µM; Boc-LRR-AMC 100 µM; pH 8.0, 37 °C; no replications; Figure 2B. As to the method:
as §2

In assay [5] the target is T3, human 20S proteasome (h20S), caspase-like (C-L) activity (Homo sapiens, UniProt P28072).
T3 construct: Human 20S proteasome (h20S) isolated from erythrocytes was used; from tissue; host or cells: human erythrocytes
Briefly: Human 20S inhibition assay, caspase-like activity (Z-LLE-AMC). The assay is classed as biochemical. The note with it: tested 5 to 50 µM; Z-LLE-AMC 100 µM; pH 8.0, 37 °C; no replications; Figure 2C. As to the method: as §2

The test system of assay [6] is proteasome CT-L activity. As to conditions: cited from earlier work. As to the method:
as §1

Assay [7] has as its system 20S proteasome T-L activity. As to conditions: cited from earlier work. From the text:
(§3) The 26S proteasome is a large (2.4 MDa), multifunctional and ATP-dependent enzymatic complex with chymotrypsin-like (CT-L), trypsin-like (T-L), and caspase-like (C-L) activities. In eukaryotic organisms, it recognizes and degrades proteins with covalently attached ubiquitin (8.5 kDa protein). The 26S proteasome is composed of a 20S barrel-shaped core particle (700 kDa) responsible for proteolytic activity and one or two 19S (890 kDa) regulatory subunits with ubiquitin-binding sites. The 20S proteasome also occurs as a free complex that degrades protein ...

The subject of assay [8] is proteasome. Set-up: method as in PMID 18801655. As to conditions: read-out: IC50, proteasome inhibition; cited from earlier work.
Description: In the current work, to unequivocally state which of the cyanobacterial metabolites are responsible for this activity, the six isolated Ncps were assayed.
Assay [9] relates to proteasome CT-L activity. The note with it: cited from earlier work.
Excerpt: as §3
This is another data set of the same source.

The test system of assay [10] is 20S proteasome C-L activity. The note with it: cited from earlier work.
Excerpt: as §3

In assay [11] the test system is 20S proteasome CT-L activity. As to conditions: cited from earlier work.
Excerpt: as §3

Turning to `CCCCCC(=O)N[C@H](C(=O)N[C@@H](CCS(C)(=O)=O)C(=O)N[C@@H](CC(C)C)C(=O)[C@@]1(C)CO1)C(C)C` [carmaphycin B], in assay [1], the “inhibition of CT-L activity of the Saccharomyces cerevisiae 20S proteasome” value is “low nanomolar concentrations”.

By IC50 is commonly meant the midpoint of a concentration-inhibition curve. The compound `CCC(C)C(NC(=O)C(CCC(N)=O)NC(=O)CNC(=O)C(N)Cc1ccc(O)cc1)C(=O)NC(CO)C(=O)N1CC(C)CC1C(=O)NC(C=O)Cc1ccccc1` (stereo not drawn) [Ncp-A2-L, Tyr-Gly-Gln-Ile-Ser-MePro-Phe-H] (H-YGQIS[ξPro(4ξ-Me)]F-aldehyde; configuration not given here) gave an IC50 in [2] (h20S 1.4 nM, approximate (ca.)) of approximately 50000 nM.

Consider scytonemide A, for which the IC50 in assay [3] was 96 nM.

Take `CC[C@H](C)[C@H](NC(=O)[C@@H](CCC(N)=O)NC(=O)CNC(=O)[C@@H](N)Cc1ccc(O)cc1)C(=O)N[C@@H](CO)C(=O)N1CCC[C@H]1C(=O)N[C@H](C=O)CC(C)C` [Ncp-E2-L] (H-YG[dQ]ISPL-aldehyde; N-terminus assumed): the “effect on CT-L activity of the human 20S proteasome at 50 µM” value in assay [2] (applied at 50 µM, triplicate, Figure 2A) is listed as “inhibited”. In addition, the “effect on T-L activity of the human 20S proteasome” value in assay [4] is listed as “did not modify”. Besides, the “effect on C-L activity of the human 20S proteasome” value in [5] is listed as “did not modify”.

Turning to `O=C1C(=O)c2c([nH]c3ccccc23)/C1=C\c1ccc(O)cc1` [Nostodione A], the IC50 in assay [6] was 50000 nM.

In the case of `CC(=O)N[C@@H](CC(C)C)C(=O)N[C@@H](CC(C)C)C(=O)N[C@H](C=O)CCCNC(=N)N` [Leupeptin], the “effect on T-L activity of the 20S proteasome” value in assay [7] is “inhibits T-L activity”.

As for `CC(C)C[C@@H](C=O)NC(=O)[C@H](CC(C)C)NC(=O)[C@H](CC(C)C)NC(=O)OCc1ccccc1` [MG-132] (Cbz-Leu-Leu-Leu-aldehyde), the concentration for half-maximal inhibition (IC50) in assay [8] was 110 nM.

For Tyropeptin A, in assay [9], the “effect on CT-L activity” value is reported as “inhibits mainly CT-L activity”.

Consider `CCCCCC(=O)N[C@H](C(=O)N[C@@H](CC[S+](C)[O-])C(=O)N[C@@H](CC(C)C)C(=O)[C@@]1(C)CO1)C(C)C` (some centres unmarked) [carmaphycin A], for which the “inhibition of CT-L activity of the Saccharomyces cerevisiae 20S proteasome” value in assay [1] was “low nanomolar concentrations”.

With `CCCCCCCCC[C@@H](O)CC(=O)N[C@@H](CC(N)=O)C(=O)N[C@@H](CCC(N)=O)C(=O)N[C@H](C=O)CC(C)C` [fellutamide B], the half-maximal inhibitory concentration (IC50) in assay [10] was 1200 nM; in assay [11], 9.4 nM; in [7], 2000 nM.

Source of the values: paper PMC8533403, “Nostocyclopeptides as New Inhibitors of 20S Proteasome” (Biomolecules, 2021).
